Laboratory results: paper PMC5078010 (Oncotarget, 2016)
Entries after “also recorded” stand apart in the source; their conditions may differ. Values belong to the molecule of their own block, whether it stands above or below them. FAM = carboxyfluorescein

Key:
[1] = system: HDM2-C8 (residues 1-125), M62A reverted / p53; experiment: In vitro pull-down, C8 with M62A reverted; format: binding, human
Experimental: (§3) Protein G beads were incubated with anti-HA (1μg per 10μL beads) for 1 hour in PBST-3%BSA and subsequently washed thrice in PBST-0.1%BSA. IVT-expressed protein was incubated with the beads on a rotator for 30 mins. […] IVT-containing secondary protein was added to the mixture and incubation allowed for 1 hour. Beads were finally washed thrice in PBST-0.1%BSA and thrice with PBS, and bound proteins eluted by resuspension in 20μL SDS-PAGE loading buffer and incubation at 95 °C for 5 minutes. Where required, blank IVT extract (no template DNA added) was used as control. The eluates were subjected to electrophoresis, transferred to nitrocellulose membranes and probed for p53 with DO1-HRP or for HDM2 with anti-HA antibody followed by rabbit anti-mouse (Dakocytomation). Image acquisition was carried out using either film or digitally (Odyssey FC, Li-Cor).

[2] = system: HDM2 L34P (residues 1-125) / p53; experiment: In vitro pull-down, L34P; design: species or system human; settings: PM2 10 μM; N-terminal point mutant L34P; reduced p53 binding
Experimental: as §3

[3] = system: WT and indicated C11/C12-derived HDM2 (1-125) mutants / p53; experiment: In vitro pull-down, Fig. S1B; format: binding, human
Experimental: as §3

[4] = system: HDM2 P89S (residues 1-125) / p53; experiment: In vitro pull-down, P89S; design: species or system human; settings: PM2 10 μM; N-terminal point mutant P89S; p53 binding retained
Experimental: as §3

[5] = system: HDM2 Y60C (residues 1-125) / p53; experiment: In vitro pull-down, Y60C; design: species or system human; settings: PM2 10 μM; N-terminal point mutant Y60C; reduced p53 binding
Experimental: as §3

[6] = system: HDM2 F55L (full length) / p53 in p53/MDM2-null DKO cells; experiment: p53 reporter assay in DKO cells, F55L; format: cell-based, mouse; settings: knockdown reduced ~[…] vs WT
Experimental: (§1) Mouse embryonic fibroblast p53/Mdm2 double-knockout (DKO) cells (a kind gift from Guillermina Lozano) were maintained in Dulbecco's modified Eagle's medium (DMEM) with 10% (v/v) foetal calf serum (FCS) and 1% (v/v) penicillin/streptomycin. The cells were seeded at 1.0 × 10^5 cells/well in 6-well plates, 24 hours prior to transfection. Cells were co-transfected with parental or individual PM2-resistant HDM2 plasmid, p53-pcDNA plasmid, LacZ reporter plasmid and luciferase transfection efficiency plasmid using TurboFect transfection reagent (Thermo Scientific) according to the manufacturer's instructions. […] In all cases, the total amount of plasmid DNA transfected per well was equilibrated by addition of the parental vector pcDNA3.1a (+).
(§2) DKO cells were harvested 24hours post transfection and β-galactosidase activities were assessed using the Dual-light System (Applied Biosystems) according to the manufacturer's protocol. β-galactosidase activity was normalized with luciferase activity for each sample. To check for expression levels of relevant proteins via western blot, 5 μg of the cell lysates were probed for p53 with horseradish peroxidase conjugated DO1 antibody, for HDM2 and actin with anti-HA antibody and AC15 antibody respectively followed by rabbit anti-mouse.

[7] = system: HDM2 L34P (full length) / p53 in p53/MDM2-null DKO cells; experiment: p53 reporter assay in DKO cells, L34P; format: cell-based, mouse; settings: knockdown of p53 activity decreased ~7 fold vs WT
Experimental: Mouse embryonic fibroblast p53/Mdm2 double-knockout (DKO) cells (a kind gift from Guillermina Lozano) [58] were maintained in Dulbecco's modified Eagle's medium (DMEM) with 10% (v/v) foetal calf serum (FCS) and 1% (v/v) penicillin/streptomycin. The cells were seeded at 1.0 × 10^5 cells/well in 6-well plates, 24 hours prior to transfection. […] In all cases, the total amount of plasmid DNA transfected per well was equilibrated by addition of the parental vector pcDNA3.1a (+).

[8] = system: HDM2 C77R (residues 1-125) / p53; experiment: In vitro pull-down, C77R; format: binding, human; settings: N-terminal point mutant C77R
Experimental: as §3

HDM2 F55A (1-125) / p53 = experiment: In vitro pull-down, F55A; format: binding, human; settings: HDM2 (1-125) F55A
Experimental: as §3

[9] = system: HDM2 Y60C (full length) / p53 in p53/MDM2-null DKO cells; experiment: p53 reporter assay in DKO cells, Y60C; format: cell-based, mouse; settings: knockdown of p53 activity decreased ~7 fold vs WT
Experimental: as §1, §2

[10] = system: HDM2 I99V (full length) / p53 in p53/MDM2-null DKO cells; experiment: p53 reporter assay in DKO cells, I99V; format: cell-based, mouse; settings: knockdown reduced ~[…] vs WT
Experimental: as §1, §2

[11] = system: WT and indicated C8-derived HDM2 (1-125) point mutants / p53; experiment: In vitro pull-down, Fig. S1A; format: binding, human
Experimental: as §3

[12] = system: HDM2-C8 (full-length) / p53 in p53/MDM2-null DKO cells; experiment: p53 reporter assay in DKO cells, HDM2-C8; format: cell-based, mouse
Experimental: as §1, §2

[13] = system: WT and indicated HDM2 (1-125) single and double point mutants / p53; experiment: In vitro pull-down, Fig. S3; format: binding, human
Experimental: as §3

HDM2 K36E (1-125) / p53 = experiment: In vitro pull-down, K36E; format: binding, human; settings: HDM2 (1-125) K36E
Experimental: as §3

[14] = system: wild-type HDM2 (full-length) / p53 in p53/MDM2-null DKO cells; experiment: p53 reporter assay in DKO cells, WT HDM2; format: cell-based, mouse; settings: for p53 activity: percentage of p53-alone, ~ 6% without inhibitor
Experimental: as §1, §2

[15] = system: HDM2 variant C8 (residues 1-125) / p53; experiment: In vitro pull-down, selectant C8; format: binding, human; settings: PM2 10 μM; HDM2 residues 1-125
Experimental: as §3

[16] = system: HDM2 I99V (residues 1-125) / p53; experiment: In vitro pull-down, I99V; design: species or system human; settings: PM2 10 μM; N-terminal point mutant I99V; p53 binding retained
Experimental: as §3

HDM2 Y48C (1-125) / p53 = experiment: In vitro pull-down, Y48C; format: binding, human; settings: HDM2 (1-125) Y48C
Experimental: as §3

[17] = system: HDM2 V108A (N-terminal domain) / p53; experiment: In vitro pull-down, V108A; format: binding, human; settings: N-terminal point mutant V108A
Experimental: as §3

[18] = system: C8-derived point mutants in full-length HDM2 / p53; experiment: In vitro pull-down, full-length point mutants; format: binding, human; settings: PM2 10 μM; full-length HDM2, mutations displaying the PM2-resistant phenotype
Experimental: as §3

[19] = system: HDM2 variant C12 (residues 1-125) / p53; experiment: In vitro pull-down, selectant C12; format: binding, human; settings: PM2 10 μM; HDM2 residues 1-125
Experimental: as §3

[20] = system: HDM2 Y67H (N-terminal domain) / p53; experiment: In vitro pull-down, Y67H; format: binding, human; settings: N-terminal point mutant Y67H
Experimental: as §3

[21] = system: HDM2 P89S (full length) / p53 in p53/MDM2-null DKO cells; experiment: p53 reporter assay in DKO cells, P89S; format: cell-based, mouse; settings: PM2
Experimental: as §1, §2

[22] = system: HDM2-F55L (residues 7-134, RFP fusion) / p53 (residues 1-81, GFP fusion) in F2H-BHK cells; experiment: Fluorescent two-hybrid (F2H) co-localization assay; format: cell-based; settings: PM2 0-50 μM, 6-8 hours, serum-free DMEM, 37°C; n=2
[23] = system: HDM2 variant C11 (residues 1-125) / p53; experiment: In vitro pull-down, selectant C11; format: binding, human; settings: PM2 10 μM; HDM2 residues 1-125
Experimental: as §3

[24] = system: HDM2 F55L (residues 1-125) / p53; experiment: In vitro pull-down, F55L; design: species or system human; settings: PM2 10 μM; N-terminal point mutant F55L; p53 binding retained
Experimental: as §3

[25] = system: xenograft tumours in mice; p53; design: method as in PMID 25145672, PMID 26070072; settings: cited from earlier work
HDM2 M62A = settings: M62A mutation; earlier selection of Nutlin-resistant HDM2; cited from earlier work
HDM2 L82P = settings: at the cost of reduced p53 binding; cited from earlier work
Source text: The crystal structure of the stapled peptide M06 bound to HDM2-M62A was recently described. […] The side chains of L34 and Y60 pack against numerous hydrophobic residues contributing to the p53-binding hydrophobic cleft (Figure 8). Mutations to less bulky residues (P and C respectively) likely result in altered struc ...

[26] = target: T1, HDM2-F55L (amino acids 1-125), recombinant (human, UniProt Q00987 1-125, F55L); experiment: fluorescence polarisation; competitive fluorescence anisotropy, apparent Kd; PM2 or p53 peptide titrated against wild-type HDM2 at 150 nM or HDM2-F55L at 200 nM with 50 nM FAM-12-1 peptide; PBS pH 7.4, 3% DMSO, 0.1% Tween-20; settings: both partners purified
T1 construct: also called mutant HDM2-F55L; source: E. coli BL21(DE3) pLysS, purified (GSTrap, on-column PreScission cleavage, Resource S cation exchange)

[27] = target: T2, HDM2 (amino acids 1-125), recombinant (human, UniProt Q00987 1-125); experiment: as above; settings: both partners purified
T2 construct: also called WT HDM2; source: E. coli BL21(DE3) pLysS, purified (GSTrap, on-column PreScission cleavage, Resource S cation exchange)
T2 sequence (Q00987 1-125): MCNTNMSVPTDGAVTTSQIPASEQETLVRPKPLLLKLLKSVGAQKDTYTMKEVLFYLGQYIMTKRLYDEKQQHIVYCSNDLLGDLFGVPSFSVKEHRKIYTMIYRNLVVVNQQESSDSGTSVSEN

T1 sequence (Q00987 1-125 F55L): as the sequence (Q00987 1-125) above, with F55L counted along it

Molecule: CC(=O)N[C@H](C(=O)N[C@@H](CO)C(=O)N[C@@H](Cc1ccccc1)C(=O)N[C@]1(C)CCCCCCC=CCCC[C@@](C)(C(N)=O)NC(=O)[C@H](CC(C)C)NC(=O)[C@H](CC(C)C)NC(=O)[C@H](C)NC(=O)[C@H](Cc2c[nH]c3ccccc23)NC(=O)[C@H](Cc2ccc(O)cc2)NC(=O)[C@H](CCC(=O)O)NC1=O)[C@@H](C)O [PM2]
- PM2 resistance after reversion of M62A in C8 [1]: little impact upon reversion of the M62A mutation to PM2 binding in HDM2-C8; also recorded: reversion of this mutation in the C8 selectant did not alter the phenotype
- PM2 resistance (inhibition of p53 pull-down) [2]: clearly resistant to PM2 binding
- PM2 inhibition of p53 pull-down [3]: no significant reduction in PM2 inhibition
- PM2 resistance (inhibition of p53 pull-down) [4]: showed weak resistance to PM2
- PM2 resistance (inhibition of p53 pull-down) [5]: clearly resistant to PM2 binding
- magnitude of rescue of p53 activity by PM2 [6]: ~ 3.2 fold
- rescue of p53 activity by PM2 [7]: no rescue observed
- PM2 resistance (inhibition of p53 pull-down) [8]: showed no PM2-resistance phenotype
- effect of F55A on interaction with p53 or PM2 (HDM2 F55A (1-125) / p53): make little difference towards interaction with p53 or PM2
- rescue of p53 activity by PM2 [9]: no rescue observed
- magnitude of rescue of p53 activity by PM2 [10]: ~ 3.2 fold
- PM2 inhibition of p53 pull-down [11]: no significant reduction in PM2 inhibition
- increase in p53 activity on addition of PM2 ([12]; PM2 20 μM): did not result in any significant increase in p53 activity
- PM2 inhibition of p53 pull-down [13]: no significant reduction in PM2 inhibition
- resistance phenotype (p53 pull-down) (HDM2 K36E (1-125) / p53): Only the L54P mutation showed an exceptionally weak resistance phenotype
- p53 activity ([14]; PM2 20 μM): ~ 26%
- magnitude of rescue of p53 activity by PM2 ([14]; comparison with F55L and I99V (Figures 6B, 6C)): ~ 4 fold
- PM2 resistance (inhibition of p53 pull-down) [15]: appeared significantly resistant to PM2, with little or no reduction in their interaction with p53 in the presence of PM2
- PM2 resistance (inhibition of p53 pull-down) [16]: showed weak resistance to PM2
- resistance phenotype (p53 pull-down) (HDM2 Y48C (1-125) / p53): Only the L54P mutation showed an exceptionally weak resistance phenotype
- PM2 resistance (inhibition of p53 pull-down) [17]: showed no PM2-resistance phenotype
- PM2 resistance (inhibition of p53 pull-down) [18]: reduced inhibition by PM2; also recorded: behaved similarly when introduced as point mutants into full-length HDM2
- PM2 resistance (inhibition of p53 pull-down) [19]: appeared significantly resistant to PM2, with little or no reduction in their interaction with p53 in the presence of PM2
- PM2 resistance (inhibition of p53 pull-down) [20]: showed no PM2-resistance phenotype
- behaviour in p53 reporter assay [21]: essentially behaved like wild-type HDM2
- inhibition of p53-HDM2 F55L interaction compared to WT [22]: no significant difference compared to WT for inhibition
- PM2 resistance (inhibition of p53 pull-down) [23]: appeared significantly resistant to PM2, with little or no reduction in their interaction with p53 in the presence of PM2
- PM2 resistance (inhibition of p53 pull-down) [24]: showed weak resistance to PM2

Molecule: CC(C)(C)C[C@@H]1N[C@@H](C(=O)N[C@H]2CC[C@H](O)CC2)[C@H](c2cccc(Cl)c2F)[C@]12C(=O)Nc1cc(Cl)ccc12 [SAR405838]
- development of resistance [25]: development of resistance to the Nutlin analogue SAR405838 was associated with a point-mutated p53 that still retained activity

Molecule: Nutlin [reference compound]
- effect of M62A on Nutlin binding (HDM2 M62A): shown to abrogate Nutlin binding
- rescue of p53 activity by Nutlin [9]: no rescue observed
- effect of Nutlin on C8 function ([12]; Nutlin 10 μM): had little effect in abrogating the function of C8
- p53 activity ([14]; Nutlin 10 μM): ~ 26%
- resistance of L82P to Nutlin binding (HDM2 L82P): resistant to Nutlin binding at the cost of reduced p53 binding

- binding result [26]: binds
- binding result [27]: binds
B1: carboxyfluorescein (FAM) labelled 12-1 peptide (peptide)
peptide: {FAM}-RFMDYWEGL-NH2
notes: tracer peptide of the fluorescence anisotropy assay; also called the labelled peptide
